Measured values: US9694073B2, “Small molecule inhibitors of polynucleotide kinase/phosphatase, poly(ADP-ribose) polymerase and uses thereof” (THE GOVERNORS OF THE UNIVERSITY OF ALBERTA, priority 2009, dated 2017)
Entries after “also recorded” stand apart in the source; their conditions may differ.

Columns and labels:
[1] = molecular target: human PNKP phosphatase activity (Homo sapiens, UniProt Q96T60); test: PiColorlock Gold assay for 3'-phosphatase activity (release of inorganic phosphate)
[2] = molecular target: calcineurin (Rattus norvegicus, UniProt P63329); test: Calcineurin pNPP phosphatase assay; assay type: biochemical; details: concentration as high as 83.3 μM
Method: (§1) PP-1cγ and calcineurin activity was analyzed, using a colorimetric p-nitrophenol phosphate (pNPP) assay as previously described (33). The reaction were carried out in a 96-well microplate with a final volume of 60 μl containing 40 μl of pNPP assay buffer (50 mM Tris, pH 7.4, 0.1 mM EDTA, 30 mM MgCl2, 0.5 mM MnCl2, 1 mg/ml BSA, 0.2% β-mercaptoethanol), 0.03 μg PP-1cγ (specific activity>30 units per mg) or a catalytically equivalent quantity of calcineurin and 10 μl of 0.5 mM DNA 3′-phosphatase inhibitor sample in DMSO or 10 μl of 50 μM A12B4C3 sample in DMSO, or control solvent. After a 10-minute incubation at 37° C., 10 μl of 30 mM pNPP was added to each well and incubated for an additional of 60 minutes and 45 minutes for PP-1cγ and calcineurin, respectively. The absorbance at 405 nm was measured using a SOFTmax 2.35 microplate reader (Molecular Devices, Sunnyvale, Calif.).

[3] = system: M059J cells (DNA-PKcs negative); assay type: cell-based, human
[4] = molecular target: T1, Schizosaccharomyces pombe PNKP (Schizosaccharomyces pombe, UniProt O13911); test: PiColorLock 3'-phosphatase assay, fission yeast PNKP; assay type: biochemical; details: read-out: inhibition of S. pombe PNKP
T1 construct: made in house
T1 sequence (O13911 1-408): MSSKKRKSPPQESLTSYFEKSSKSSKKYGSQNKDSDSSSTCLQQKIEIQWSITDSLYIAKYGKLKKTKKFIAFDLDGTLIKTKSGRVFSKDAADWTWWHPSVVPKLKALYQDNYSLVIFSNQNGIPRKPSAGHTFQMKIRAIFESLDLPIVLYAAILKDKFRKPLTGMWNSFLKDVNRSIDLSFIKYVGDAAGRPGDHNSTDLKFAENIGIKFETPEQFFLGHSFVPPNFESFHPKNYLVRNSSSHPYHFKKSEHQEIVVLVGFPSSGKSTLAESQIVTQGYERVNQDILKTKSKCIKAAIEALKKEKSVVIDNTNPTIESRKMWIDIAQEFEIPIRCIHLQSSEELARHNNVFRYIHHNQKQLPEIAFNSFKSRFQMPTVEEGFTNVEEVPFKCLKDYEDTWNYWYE
Source text: (§2) To determine the specificity of A12B4C3 for human PNKP phosphatase activity, a number of closely related phosphatases such as the PNKP enzymes isolated from bacteriophage T4, Schizosaccharomyces pombe and mouse, as well as aprataxin, were examined.

[5] = molecular target: T2, PP-1cγ (Homo sapiens, UniProt P36873); test: PP-1cγ pNPP phosphatase assay; assay type: biochemical; details: concentration as high as 83.3 μM
T2 construct: made in house; host or cells: E. coli
Method: as §1, with “respectively.” for “respectively. The absorbance at 405 nm was measured using a SOFTmax 2.35 microplate reader (Molecular Devices, Sunnyvale, Calif.).”

[6] = molecular target: T3, Phage T4 polynucleotide kinase (T4 PNK) (Enterobacteria phage T4, UniProt P06855); test: PiColorLock 3'-phosphatase assay, phage T4 PNK; assay type: biochemical, bacteriophage T4
T3 construct: purchased Roche Diagnostics (Indianapolis, Ind.)
Source text: as §2

[7] = molecular target: T4, hPNKP 3'-phosphatase activity (Homo sapiens, UniProt Q96T60); test: Conventional radio-gel assay for hPNKP 3'-phosphatase activity; assay type: biochemical
T4 construct: made in house; host or cells: bacteria (said only for the batch compared with aprataxin)

[8] = molecular target: T5, mouse PNKP (Mus musculus, UniProt Q9JLV6); test: PiColorLock 3'-phosphatase assay, mouse PNKP; assay type: biochemical; details: all concentrations tested (down to 5 μM)
T5 construct: made in house
Source text: as §2

[9] = system: DNA Polymerase β Dominant Negative (Pol β DN) A549 cells; test: Synthetic lethality cell proliferation assay; assay type: cell-based, human; details: increasing concentrations, 72 hours
[10] = system: A549 cells; test: Radiosensitization, clonogenic assay; assay type: cell-based, human; details: 1 μM, 2 hours before irradiation and 24 hours after
Method: (§3) The effect of hPNKP inhibition by A12B4C3 on cellular survival following exposure to ionizing radiation was measured in A549, A549δPNKP and MDA-MB-231 and MDA-MB-231δPNKP cells by clonogenic assays. Cells were seeded on 60-mm tissue culture plates at various concentrations to give between about 100-1000 colonies per plate and returned to the incubator overnight to allow the cells to attach. For radiosensitization studies, the cells were incubated with or without 1 μM A12B4C3 for 2 hours before irradiation and then exposed to increasing doses of γ-radiation (^60Co Gammacell; Atomic Energy of Canada Limited, Ottawa). After irradiation, cells were incubated for a further 24 hours in the same media and then washed twice with phosphate-buffered saline (PBS) and incubated in fresh media without the inhibitor. Colonies were stained with crystal violet after 10 to 14 days and counted with an automated Colcount colony counter (Oxford Optronix, Oxford, UK).
(§4) The capacity of A12B4C3 to act as a radiosensitizer was then examined. A549 cells were incubated with 1 μM A12B4C3 for 2 hours prior to irradiation and then maintained in the presence of the compound for a further 24 hours. […] This radiation response was nearly identical to that seen with cells depleted of PNKP by stable expression of shRNA (A549δPNKP).

[11] = system: A549δPNKP cells (PNKP-depleted); test: Radiosensitization, clonogenic assay; assay type: cell-based, human; details: 1 μM
Method: as §3, §4

T2 sequence (P36873 whole entry): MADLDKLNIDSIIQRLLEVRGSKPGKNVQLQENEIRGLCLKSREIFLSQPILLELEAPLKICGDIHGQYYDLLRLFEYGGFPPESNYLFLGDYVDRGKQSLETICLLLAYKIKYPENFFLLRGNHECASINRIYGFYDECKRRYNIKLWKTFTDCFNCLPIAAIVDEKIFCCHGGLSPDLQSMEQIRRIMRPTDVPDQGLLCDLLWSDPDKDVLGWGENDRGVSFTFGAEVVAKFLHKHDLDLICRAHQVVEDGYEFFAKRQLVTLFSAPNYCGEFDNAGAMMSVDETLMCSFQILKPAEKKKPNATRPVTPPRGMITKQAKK
T3 sequence (P06855 whole entry): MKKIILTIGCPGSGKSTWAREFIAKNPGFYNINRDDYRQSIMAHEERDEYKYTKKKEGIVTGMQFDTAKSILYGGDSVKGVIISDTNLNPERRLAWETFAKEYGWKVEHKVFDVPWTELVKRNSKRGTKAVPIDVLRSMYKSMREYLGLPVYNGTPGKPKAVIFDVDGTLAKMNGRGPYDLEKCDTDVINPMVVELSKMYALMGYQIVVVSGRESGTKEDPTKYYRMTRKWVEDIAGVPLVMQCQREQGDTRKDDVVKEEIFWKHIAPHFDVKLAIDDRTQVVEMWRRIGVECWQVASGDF
T5 sequence (Q9JLV6 whole entry): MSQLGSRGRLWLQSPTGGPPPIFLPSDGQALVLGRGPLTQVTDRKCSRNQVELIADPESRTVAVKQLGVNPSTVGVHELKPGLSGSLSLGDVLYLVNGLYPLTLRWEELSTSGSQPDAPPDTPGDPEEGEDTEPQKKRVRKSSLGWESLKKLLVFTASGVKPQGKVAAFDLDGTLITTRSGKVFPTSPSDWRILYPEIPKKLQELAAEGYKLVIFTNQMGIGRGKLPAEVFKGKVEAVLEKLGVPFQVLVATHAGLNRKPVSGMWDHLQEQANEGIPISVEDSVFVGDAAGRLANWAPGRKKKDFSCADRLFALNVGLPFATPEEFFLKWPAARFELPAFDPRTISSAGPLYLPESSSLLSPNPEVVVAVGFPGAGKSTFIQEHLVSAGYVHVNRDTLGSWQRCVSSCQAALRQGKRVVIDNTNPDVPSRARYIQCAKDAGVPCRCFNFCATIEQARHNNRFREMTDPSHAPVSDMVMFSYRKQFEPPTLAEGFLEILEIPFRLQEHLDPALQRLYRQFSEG

`CCCCCCCCCCC(O)C1C=CC2C(=O)N(c3ccccc3)C(=O)C2N1Nc1ccc([N+](=O)[O-])cc1` (centres unmarked) [Compound A12B4C3, 2-(1-hydroxyundecyl)-1-(4-nitrophenylamino)-6-phenyl-6,7a-dihydro-1H-pyrrolo[3,4-b]pyridine-5,7(2H,4aH)-dione] was tested, and the “concentration giving near maximal inhibition” value ([1]; PiColorLock Gold) was 5 µM, the “potency rank among the five PNKP inhibitors” value ([1]; PiColorLock Gold, FIG. 4B) was “most potent” and the inhibition at 50 µM ([1]; read-out: inhibition of human PNKP) was roughly 85%. The inhibition of calcineurin [2] was “Neither enzyme displayed inhibition; also recorded: no inhibition”, the “synthetic lethality in M059J cells” value [3] was “no synthetic lethality is seen” and the inhibition at 50 µM [4] was roughly 20%. The “inhibition of PP-1γ” value [5] was “Neither enzyme displayed inhibition; also recorded: no inhibition”, the “inhibition of phage T4 PNKP” value ([6]; 50 μM) was “failed to inhibit” and the inhibition at 50 µM ([6]; read-out: inhibition of phage T4 PNKP) was roughly 12.5%. The “inhibition of hPNKP phosphatase activity, radio-gel assay” value [7] was “inhibited”, the “inhibition of mouse PNKP” value [8] was “significantly inhibited” and the “cell survival of Pol β DN cells” value [9] was “reduced survival; also recorded: inverse relationship”. The “radiosensitization (γ-radiation survival curves)” value [10] was “almost doubled the radiosensitivity” and the “radiosensitization (γ-radiation survival curves)” value [11] was “failed to sensitize”.
